Results on one molecule are retold here after patent US10710951B2, “Pharmaceutical composition containing verbenone derivative for treating or preventing neurodegenerative disease” (KOREA UNIVERSITY RESEARCH AND BUSINESS FOUNDATION, priority 2012, dated 2020).

One assay concerns cortical neurons. Description: NMDA-induced excitotoxicity, LDH release. The format is cell-based, SD rats. On the set-up: dose or concentration left out as unconfirmed. The note with it: cultured cortical neuronal cells; sample 30 min before NMDA; lower than MK-801; FIG. 2. On the procedure: Cortical neurons (5×10^5 cells/ml) were isolated from fetal SD rats (16-17 days). Specifically, brain cortex was cut, and cells were isolated from the tissue by repeated trituration using a Pasteur pipette in buffer (Hanks' Balanced Salt Solution, HBSS). The cell suspension (1.8×10^3 cells/mm^2) was dispensed on a plate pretreated with poly-D-lysine ([…])/laminin ([…]). The cells were placed in 10% FBS-containing NBM medium, and incubated in a […]/5% CO2 atmosphere at 37° C. After 15-16 days of the incubation, the experiment was performed.
After incubation on the plate for 15-18 days, the cortical neurons were exposed to NMDA ([…]) in a solution (Mg^2+-free Earle's balanced salt solution (EBSS); containing 1.8 mM CaCl2 and 10 mM glycine) for 10 minutes. After exposure, the cells were washed with MgSO4-containing EBSS solution, and incubated in 25 mmol/L glucose-containing DMEM medium in a 5% CO2 incubator at 37° C. 30 Minutes before treatment with NMDA, the cells were treated with each sample […].
In order to measure cell injury or cell death, the amount of LDH released into the medium was measured using a cell viability measurement kit (Sigma-Aldrich, St. Louis, Mo.). Cell viability was expressed as the percentage of LDH relative to the total cellular LDH level measured in sister cultures lysed by freezing-thawing after the experiment.

Assay [1] has as its system focal cerebral ischemia (MCAO) rats. Description: Focal cerebral ischemia model (MCAO). The format is in vivo, SD rats. The note with it: transient ischemia rat; 50 mg/kg intraperitoneal, twice (2 hours and 7 hours after brain infarction); FIG. 4. On the procedure:
Rats were anesthetized with 3.0% isoflurane in N2O and O2 (70:30 v/v) mixture via facemask and were maintained in 2% isoflurane. Throughout the experimental period, the body temperature was controlled and kept to 37° C.±0.3° C. using a rectal thermometer and a heating pad until the animals were sufficiently recovered from anesthesia after surgery. Focal cerebral ischemia was achieved by right-sided endovascular MCAO. Briefly, a 3-0 heat-blunted monofilament nylon suture (Ethicon Johnson & Johnson, Brussels, Belgium) were inserted into the lumen of the right external carotid artery stump and advanced 17.5 mm into the internal carotid artery to occlude the ostium of the MCA. The suture was removed after 1.5 hours to allow animals to recover. Operated controls were subjected to the same surgical procedures, except for MCAO. Physiological values were measured 15 minutes before MCAO and at 15 minutes after reperfusion, and mean blood pressure was monitored for 5 minutes using a blood pressure analyzer (MicroMed, Lousville, Ky.), and glucose were monitored using an analyzer (Ciba Corning Diagnostics Corp., Medfield, Mass.). […]
Rats were anesthetized with 3.5% chloral hydrate (5 ml/kg, intraperitoneal injection) and decapitated. […] The cross-sectional area of infarction between the bregma levels of +4 mm (anterior) and −6 mm (posterior) were determined with analysis software (OPTIMAS5.1 image analysis program, BioScanInc. Edmonds, Wash.). Brain infarct size was measured manually by outlining the margins of infarct areas. The total infarction volume (mm^3) was calculated according to the following equation 5 as disclosed in a document (J Neurosci Methods (1998) 84:9-16; J Cereb Blood Flow Metab (1990) 10:290-293), and compensated for brain edema. Cerebral edema was determined by the percent increase of the ipsilateral/contralateral hemisphere area as shown in the following equation 6. […]

On to `COc1cc(C=CC2=CC(=O)[C@H]3C[C@@H]2C3(C)C)cc(O)c1O` [Compound 3f, (1S,5R)-4-(3,4-dihydroxy-5-methoxystyryl)-6,6-dimethylbicyclo[3.1.1]hept-3-en-2-one], for which the NMDA-induced neuronal injury result in the assay on cortical neurons was “significantly reduced NMDA-induced neuronal injury”. In addition, in assay [1], the cerebral edema result is given as “significantly reduced”, the ischemic injury result is “significantly reduced” and the neurological deficit entry is “significantly reduced”.
